Target: CDK2 (UniProt P24941)
Experiment: Enzyme Assay
Details: for inhibition: concentration not given here

Ki | inhibition | Structure (SMILES)
1.23 µM | 50% | O=C1CCCCn2cc(c3cccnc32)C2=C(C(=O)NC2=O)c2cn(c3ncccc23)CCCC1
 | 20% | O=C1NC(=O)C2=C1c1cn(c3ncccc13)CCCC1=CC=C(CCCn3cc2c2cccnc23)S1
0.682 µM | 57% | O=C1NC(=O)C2=C1c1cn(c3ncccc13)CCCCC(O)CCCCn1cc2c2cccnc21

From the Kinase Knowledgebase extract (Sharma et al. 2016)
